Data published in ChEMBL document CHEMBL4270503, “Recent developments in small molecule therapies for renal cell carcinoma” (Eur J Med Chem, 2017).

Key:
Homo sapiens [1] = organism: Homo sapiens; assay: Antitumor activity in patient with metastatic renal cell carcinoma assessed as progression free survival co-treated with IFNalpha during phase 3 trial; type: functional
Homo sapiens [2] = organism: Homo sapiens; assay: Antitumor activity in patient with metastatic renal cell carcinoma assessed as progression free survival during phase 3 trial; type: functional
Homo sapiens [3] = organism: Homo sapiens; assay: Antitumor activity in patient with metastatic renal cell carcinoma assessed as overall survival during phase 3 trial; type: functional
Homo sapiens [4] = organism: Homo sapiens; assay: Antitumor activity in patient with renal cell carcinoma assessed as progression free survival during phase 2 trial; type: functional
Homo sapiens [5] = organism: Homo sapiens; assay: Antitumor activity in patient with metastatic renal cell carcinoma assessed as objective response during phase 3 trial; type: functional
Homo sapiens [6] = organism: Homo sapiens; assay: Antitumor activity in patient with renal cell carcinoma assessed as overall survival during phase 3 non-inferiority trial; type: functional
Homo sapiens [7] = organism: Homo sapiens; assay: Antitumor activity in renal cell carcinoma patient with previous cytokine therapies assessed as progression free survival; type: functional
Homo sapiens [8] = organism: Homo sapiens; assay: Antitumor activity in renal cell carcinoma patient with previous sunitinib treatment assessed as progression free survival; type: functional
Homo sapiens [9] = organism: Homo sapiens; assay: Antitumor activity in patient with renal cell carcinoma assessed as overall survival (reference value: 15.2 months); type: functional
Homo sapiens [10] = organism: Homo sapiens; assay: Antitumor activity in patient with renal cell carcinoma assessed as progression free survival (reference value: 2.8 months); type: functional
Homo sapiens [11] = organism: Homo sapiens; assay: Antitumor activity in patient with metastatic renal cell carcinoma assessed as progression free survival; type: functional
Homo sapiens [12] = organism: Homo sapiens; assay: Antitumor activity in renal cell carcinoma patient with 2 previous VEGFR TKI treatment assessed as progression free survival (reference value: 1.8 months); type: functional
Homo sapiens [13] = organism: Homo sapiens; assay: Antitumor activity in patient with metastatic renal cell carcinoma assessed as overall survival; type: functional
Homo sapiens [14] = organism: Homo sapiens; assay: Antitumor activity in renal cell carcinoma patient without previous VEGFR TKI treatment assessed as progression free survival (reference value: 1.9 months); type: functional
HUVEC [15] = assay: cells; details: Homo sapiens
Homo sapiens [16] = organism: Homo sapiens; assay: Antitumor activity in patient with renal cell carcinoma assessed as progression free survival during phase 3 non-inferiority trial; type: functional
CAKI-2 = assay: Antitumor activity against human Caki2 cells xenografted in nuded mouse assessed as inhibition of tumor growth at 10 mg/kg, po; type: functional; details: CAKI-2, po, read-out: TGI
Homo sapiens [17] = organism: Homo sapiens; assay: Antitumor activity in treatment-naive and cytokine-refractory patient with renal cell carcinoma assessed as progression free survival (reference value: 4.2 months); type: functional
HUVEC [18] = assay: cells; details: Homo sapiens; remark: listed apart in the source

CO[C@H]1C[C@@H]2CC[C@@H](C)[C@@](O)(O2)C(=O)C(=O)N2CCCC[C@H]2C(=O)O[C@H]([C@H](C)C[C@@H]2CC[C@@H](OC(=O)C(C)(CO)CO)[C@H](OC)C2)CC(=O)[C@H](C)/C=C(\C)[C@@H](O)[C@@H](OC)C(=O)[C@H](C)C[C@H](C)/C=C/C=C/C=C/1C [TEMSIROLIMUS]
Survival (Homo sapiens [1]): 8.4 months | Survival (Homo sapiens [2]): 10.9 months

CCN(CC)CCNC(=O)c1c(C)[nH]c(/C=C2\C(=O)Nc3ccc(F)cc32)c1C [SUNITINIB]
Survival (Homo sapiens [3]): 26.4 months | Survival (Homo sapiens [4]): 7.8 months | Activity (Homo sapiens [5]): 31% | Survival (Homo sapiens [6]): 29.1 months | Survival (Homo sapiens [2]): 11 months

CNC(=O)c1cc(Oc2ccc(NC(=O)Nc3ccc(Cl)c(C(F)(F)F)c3)cc2)ccn1 [SORAFENIB]
Survival (Homo sapiens [7]): 6.5 months | Survival (Homo sapiens [8]): 3.4 months | Survival (Homo sapiens [9]): 17.8 months | Survival (Homo sapiens [10]): 5.5 months

COc1cc2nccc(Oc3ccc(NC(=O)C4(C(=O)Nc5ccc(F)cc5)CC4)cc3)c2cc1OC [CABOZANTINIB]
Survival (Homo sapiens [11]): 7.4 months

CO[C@H]1C[C@@H]2CC[C@@H](C)[C@@](O)(O2)C(=O)C(=O)N2CCCC[C@H]2C(=O)O[C@H]([C@H](C)C[C@@H]2CC[C@@H](OCCO)[C@H](OC)C2)CC(=O)[C@H](C)/C=C(\C)[C@@H](O)[C@@H](OC)C(=O)[C@H](C)C[C@H](C)/C=C/C=C/C=C/1C [EVEROLIMUS]
Survival (Homo sapiens [12]): 4 months | Survival (Homo sapiens [13]): 16.5 months | Survival (Homo sapiens [11]): 3.9 months | Survival (Homo sapiens [14]): 5.4 months

Cc1ccc(Nc2nccc(N(C)c3ccc4c(C)n(C)nc4c3)n2)cc1S(N)(=O)=O [PAZOPANIB]
IC50 (HUVEC [15]): 21 nM | Survival (Homo sapiens [16]): 8.4 months | inhibition in vivo at 10 mg/kg (CAKI-2): 77% | Survival (Homo sapiens [6]): 28.3 months | Survival (Homo sapiens [17]): 9.2 months | IC50 (HUVEC [18]): 720 nM

CNC(=O)c1ccccc1Sc1ccc2c(/C=C/c3ccccn3)n[nH]c2c1 [AXITINIB]
Survival (Homo sapiens [7]): 12.1 months | Survival (Homo sapiens [8]): 4.8 months
